Values quoted from earlier work as cited in US20240317846A1 (priority 2021, published 2024).
Marks after values point to notes of the source that are not given here.

Assays:
COVID-19 [1] = settings: cited from earlier work
COVID-19 [2] = settings: RECOVERY trial; cited from earlier work
COVID-19 [3] = settings: cited from earlier work; remark: listed apart in the source

Substance | Subjects alive and free of respiratory failure at 28 days (COVID-19 [1]; pre-planned analysis, subjects aged at least 70 years, standard of care 45.9%) | Primary endpoint (proportion alive and free of respiratory failure 28 days) (COVID-19 [1]; whole population) | Increased likelihood of survival (COVID-19 [2]) | Increased likelihood of survival without IMV (COVID-19 [2]) | Survival, Hazard Ratio (COVID-19 [2]) | Ventilator-Free Survival, Hazard Ratio (COVID-19 [2]) | Range of days to discharge (COVID-19 [3]; 2 patients not discharged) | Mean days to discharge (COVID-19 [3]; published cohorts)
Otilimab: monoclonal antibody targeting circulating GM-CSF | 65.1% | not meet its primary endpoint |  |  |  |  |  | 
Tocilizumab: anti-IL6 receptor monoclonal antibody |  |  | 14% | 18% | 1.14 | 1.18 | (10-19)* days | 13.5 days
